Test results from the supplement of paper PMC10307832.

What was measured:
Assay in all cases: relative viability (nuclei count vs DMSO), 5 days (fraction); higher = more cells survive
Vorinostat + Palbociclib = compound: O=C(CCCCCCC(=O)Nc1ccccc1)NO [Vorinostat] + CC(=O)c1c(C)c2cnc(Nc3ccc(N4CCNCC4)cn3)nc2n(C2CCCC2)c1=O [Palbociclib] (partner 0.5 µM)
Procedure, shortened: (§1)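 A single step with final 0.05% Triton X-100, 1% formaldehyde and 1 ug/ml Hoechst fixed the cells and stained nuclei 5 days after treatment. Lung cancer cell lines in 1536-well plates had been treated by pin tool the day after seeding with one drug alone or a fixed anchor-drug dose plus five library-drug doses (not always all listed) in √10 steps, and nuclei were counted on 4× images. Relative viability is the ratio of nuclei in treated wells to nuclei in vehicle wells, taken as the median of duplicate plates.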

Vorinostat + Bortezomib = compound: O=C(CCCCCCC(=O)Nc1ccccc1)NO [Vorinostat] + CC(C)C[C@H](NC(=O)[C@H](Cc1ccccc1)NC(=O)c1cnccn1)B(O)O [Bortezomib] (partner 0.002 µM)
Procedure, shortened: as §1

Vorinostat + Foretinib = compound: O=C(CCCCCCC(=O)Nc1ccccc1)NO [Vorinostat] + COc1cc2c(Oc3ccc(NC(=O)C4(C(=O)Nc5ccc(F)cc5)CC4)cc3F)ccnc2cc1OCCCN1CCOCC1 [Foretinib] (partner 0.25 µM)
Procedure, shortened: as §1

Vorinostat + Pictilisib = compound: O=C(CCCCCCC(=O)Nc1ccccc1)NO [Vorinostat] + CS(=O)(=O)N1CCN(Cc2cc3nc(-c4cccc5[nH]ncc45)nc(N4CCOCC4)c3s2)CC1 [Pictilisib] (partner 1 µM)
Procedure, shortened: as §1

Vorinostat + Crizotinib = compound: O=C(CCCCCCC(=O)Nc1ccccc1)NO [Vorinostat] + C[C@@H](Oc1cc(-c2cnn(C3CCNCC3)c2)cnc1N)c1c(Cl)ccc(F)c1Cl [Crizotinib] (partner 1 µM)
Procedure, shortened: as §1

Row | Cell Line | relative viability (Vorinostat + Palbociclib; first compound 0.253 µM) | relative viability (Vorinostat + Palbociclib; first compound 0.8 µM) | relative viability (Vorinostat + Palbociclib; first compound 2.53 µM) | relative viability (Vorinostat + Palbociclib; first compound 8 µM) | relative viability (Vorinostat + Bortezomib; first compound 0.253 µM) | relative viability (Vorinostat + Bortezomib; first compound 0.8 µM) | relative viability (Vorinostat + Bortezomib; first compound 2.53 µM) | relative viability (Vorinostat + Bortezomib; first compound 8 µM) | relative viability (Vorinostat + Foretinib; first compound 0.253 µM) | relative viability (Vorinostat + Foretinib; first compound 0.8 µM) | relative viability (Vorinostat + Foretinib; first compound 2.53 µM) | relative viability (Vorinostat + Foretinib; first compound 8 µM) | relative viability (Vorinostat + Pictilisib; first compound 0.253 µM) | relative viability (Vorinostat + Pictilisib; first compound 0.8 µM) | relative viability (Vorinostat + Pictilisib; first compound 2.53 µM) | relative viability (Vorinostat + Pictilisib; first compound 8 µM) | relative viability (Vorinostat + Crizotinib; first compound 0.253 µM) | relative viability (Vorinostat + Crizotinib; first compound 0.8 µM) | relative viability (Vorinostat + Crizotinib; first compound 2.53 µM) | relative viability (Vorinostat + Crizotinib; first compound 8 µM)
1 | NCI-H1666 | 0.634 | 0.576 | 0.523 | 0.511 | 0.798 | 0.461 | 0.251 | 0.189 | 0.982 | 0.906 | 0.387 | 0.349 | 0.363 | 0.283 | 0.206 | 0.128 | 0.788 | 0.713 | 0.244 | 0.22
2 | NCI-H1734 | 0.402 | 0.34 | 0.253 | 0.133 | 1.14 | 0.96 | 0.417 | 0.109 | 0.944 | 0.917 | 0.526 | 0.176 | 0.512 | 0.49 | 0.299 | 0.13 | 0.779 | 0.683 | 0.214 | 0.127
3 | NCI-H1755 | 0.431 | 0.463 | 0.3 | 0.209 | 0.95 | 0.934 | 0.2 | 0.174 | 0.997 | 0.971 | 0.525 | 0.202 | 0.47 | 0.368 | 0.173 | 0.138 | 0.942 | 0.883 | 0.233 | 0.154
4 | NCI-H1915 | 0.563 | 0.436 | 0.167 | 0.0832 | 1.01 | 0.951 | 0.54 | 0.112 | 1.14 | 1.05 | 0.474 | 0.137 | 1.17 | 0.751 | 0.426 | 0.0969 | 0.985 | 0.847 | 0.248 | 0.0881
5 | NCI-H1975 | 0.569 | 0.461 | 0.164 | 0.104 | 0.438 | 0.198 | 0.0889 | 0.081 | 0.962 | 0.838 | 0.295 | 0.108 | 0.321 | 0.242 | 0.0978 | 0.118 | 1.04 | 0.679 | 0.174 | 0.134
6 | NCI-H1993 | 0.715 | 0.775 | 0.499 | 0.362 | 1.17 | 1.13 | 0.461 | 0.411 | 0.84 | 0.801 | 0.747 | 0.494 | 0.911 | 0.919 | 0.801 | 0.589 | 0.836 | 0.932 | 0.531 | 0.653
7 | NCI-H2009 | 0.267 | 0.25 | 0.171 | 0.0986 | 1.32 | 0.567 | 0.233 | 0.126 | 1.28 | 1.22 | 0.716 | 0.143 | 1.3 | 0.747 | 0.346 | 0.0949 | 0.992 | 0.983 | 0.457 | 0.0597
8 | NCI-H2023 | 0.467 | 0.375 | 0.199 | 0.0512 | 1.16 | 0.657 | 0.223 | 0.07 | 1.13 | 0.82 | 0.31 | 0.0629 | 0.221 | 0.214 | 0.128 | 0.0818 | 0.716 | 0.525 | 0.188 | 0.0669
9 | NCI-H2085 | 0.464 | 0.419 | 0.302 | 0.172 | 0.942 | 0.841 | 0.566 | 0.265 | 0.968 | 0.665 | 0.468 | 0.228 | 0.53 | 0.462 | 0.378 | 0.303 | 0.8 | 0.831 | 0.436 | 0.181
10 | NCI-H2087 | 0.277 | 0.107 | 0.0624 | 0.0734 | 0.739 | 0.608 | 0.159 | 0.115 | 1.34 | 0.615 | 0.153 | 0.0924 | 1.32 | 0.634 | 0.275 | 0.133 | 0.838 | 0.727 | 0.236 | 0.177
